We go through 20 molecules from patent publication US7550469B2, “Heterocyclic amide derivatives and their use as dopamine D3 receptor ligands” (Aventis Pharmaceuticals Inc., priority 2001, dated 2009).

For one experiment, the target named is T1, cloned human dopamine D3 receptors (Homo sapiens, UniProt P35462).
T1 construct: expressed in transfected cells; membrane homogenate
T1 sequence (P35462 whole entry): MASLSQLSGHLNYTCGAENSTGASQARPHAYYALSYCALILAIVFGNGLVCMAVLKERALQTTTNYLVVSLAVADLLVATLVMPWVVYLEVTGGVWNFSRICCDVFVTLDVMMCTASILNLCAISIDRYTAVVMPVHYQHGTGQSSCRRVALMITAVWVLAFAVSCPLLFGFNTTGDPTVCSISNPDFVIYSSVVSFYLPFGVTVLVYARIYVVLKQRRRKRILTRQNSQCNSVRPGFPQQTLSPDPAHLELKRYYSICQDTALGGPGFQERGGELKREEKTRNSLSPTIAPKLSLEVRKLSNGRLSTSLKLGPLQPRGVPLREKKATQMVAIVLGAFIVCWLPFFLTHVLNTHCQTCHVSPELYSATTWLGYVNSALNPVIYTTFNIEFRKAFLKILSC
Description: [N-Methyl-3H]Spiroperidol binding to cloned human dopamine D3 receptors (Protocol 1). The conditions noted are these: Table 2; read-out: D3K1. In short, it runs like this: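 Radioligand displacement with [N-methyl-3H]spiroperidol used a physiological-salt Tris buffer (0.05 M, pH 7.7; NaCl 120 mM, KCl 5 mM, CaCl2 2 mM, MgCl2 1 mM) and membranes of a high-expressing stable CHO clone carrying human D3. Total ligand concentration came from measured added CPM; 0.1% ascorbic acid was optional for oxidizable compounds.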
`O=C(NCCCCN1CCN(c2csc3cc(C(F)(F)F)ccc23)CC1)c1ccc(-c2ccccc2)cc1` [815547A]: the Ki came to 3.43 nM.

The experiment is the same for the next values; noted with them: read-out: D3K1.
Regarding `O=C(NCCCCN1CCN(c2csc3cc(C(F)(F)F)ccc23)CC1)c1ccc(Cl)cc1` [compound 815548], the Ki turned out to be 1.6 nM. As to `CCOc1ccc(C(=O)NCCCCN2CCN(c3csc4cc(C(F)(F)F)ccc34)CC2)cc1` [compound 815541], the Ki turned out to be 12 nM. On the same count and under the same terms, the same measure for `O=C(NCCCCN1CCN(c2csc3cc(C(F)(F)F)ccc23)CC1)c1c(F)cccc1F` [compound 815557]: 8.7 nM; for `O=C(NCCCCN1CCN(c2csc3cc(C(F)(F)F)ccc23)CC1)c1ccc2c(c1)OCO2` [compound 815544]: 1.7 nM. In the case of `O=C(NCCCCN1CCN(c2csc3cc(C(F)(F)F)ccc23)CC1)c1sc2ccccc2c1Cl` [compound 815546], the Ki is 49 nM.

Regarding `O=C(NCCCCN1CCN(c2csc3cc(C(F)(F)F)ccc23)CC1)c1ccc(C(F)(F)F)cc1` [compound 815555], the Ki came to 7 nM. On the same count and under the same terms, the result for `O=C(NCCCCN1CCN(c2csc3cc(C(F)(F)F)ccc23)CC1)c1cc2ccccc2s1` [814238A] reads 1.9 nM. The same measure, in the same setting: the same measure for `O=C(NCCCCN1CCN(c2csc3cc(C(F)(F)F)ccc23)CC1)c1ccc(F)cc1F` [compound 815542]: 5.6 nM; for `CCCCOc1ccc(C(=O)NCCCCN2CCN(c3csc4cc(C(F)(F)F)ccc34)CC2)cc1` [compound 815545]: 38.6 nM; for `O=C(NCCCCN1CCN(c2csc3cc(C(F)(F)F)ccc23)CC1)c1ccc(Br)cc1` [compound 815551]: 4.3 nM. As for `O=C(NCCCCN1CCN(c2csc3cc(C(F)(F)F)ccc23)CC1)c1ccco1` [compound 815556], the Ki came to 6.4 nM. Still for that read-out and setting: the same measure for `COc1ccccc1C(=O)NCCCCN1CCN(c2csc3cc(C(F)(F)F)ccc23)CC1` [compound 815554]: 9.7 nM.

Still in this experiment, the particulars now being: the 13th table, unit inferred; read-out: D3Ki.
As for `O=C(NCCCCN1CCCN(c2csc3cc(F)ccc23)CC1)c1ccc2ccccc2c1` [822223G], the Ki turned out to be 2.45 nM. On to `CC(C)(C)c1ccc(C(=O)NCCCCN2CCCN(c3csc4cc(F)ccc34)CC2)cc1` [compound 822198], for which the Ki was found to be 10.5 nM.

Turning to `O=C(NCCCCN1CCCN(c2csc3cc(F)ccc23)CC1)c1ccco1` [S981843], the Ki turned out to be 0.066 nM. For the molecule `O=C(NCCCCN1CCCN(c2csc3cc(F)ccc23)CC1)c1cc2ccccc2s1` [822224G], the Ki was 1.07 nM.

Regarding `O=C(NCCCCN1CCCN(c2csc3cc(F)ccc23)CC1)c1cccc(F)c1` [compound 822154], the Ki was found to be 5.3 nM.

Regarding `O=C(NCCCCN1CCCN(c2csc3cc(F)ccc23)CC1)c1ccc(OC(F)(F)F)cc1` [compound 822152], the Ki turned out to be 4.5 nM. As for `COc1ccccc1C(=O)NCCCCN1CCCN(c2csc3cc(F)ccc23)CC1` [compound 822157], the Ki came to 1.4 nM.
